Entries after “also recorded” stand apart in the source; their conditions may differ.

The source of these data is patent US8008071B2 (University of South Florida, priority 1999, dated 2011).

In assay [1] the test system is PKCβII mRNA. The assay can be described thus: RT-PCR of PKCβII mRNA in synchronized A10 cells. Format: cell-based, rat. Particulars: for effect of glucose analogs on PKCβII mRNA: 25 mM analog; for PERCENT OF PKCβII mRNA POST-GLUCOSE TREATMENT: inhibitor added 30 minutes prior to 25 mM glucose, 5.5 mM glucose control = 100%; for PERCENT OF PKCβII mRNA POST-GLUCOSE TREATMENT / effect of inhibitor on glucose-induced destabilization of PKCβII mRNA: synchronized A10 cells; for effect of inhibitor on glucose-induced destabilization of PKCβII mRNA: 30 minutes pre-incubation, then 25 mM glucose. Here is the method:
(§1) Reverse Transcriptase-Polymerase Chain Reaction. […] The upstream sense primer corresponded to the C4 kinase domain common to both PKCβI and PKCβII (5′ […] 3′) [SEQ ID NO:4] and the downstream antisense primer was specific for PKCβI (5′ […] 3′) [SEQ ID NO:5] (Chalfant et al., 1995, pp.13326-13332). These primers detect inclusion of the PKCβII exon in the mature mRNA as well as PKCβI mRNA. Sense and antisense primers for β-actin (#5402-3) were obtained from Clonetech. PCR was performed using ampliTaq Gold DNA polymerase from PERKIN ELMER (#N808-0240) on 10% of the reverse transcriptase reaction product. Following 35 cycles of amplification in a BIOMETRA Trioblock thermocycler (PKCβI and -βII: 95° C., 30 sec; 64° C., 2 min for 35 cycles; and for β-actin: 94° C., 1 min; 58° C., 1 min; and 72° C., 3 min for 35 cycles), 25% of the PCR reaction was resolved on a 1.2% agarose gel. Bands were observed under UV light and photographed.
Primers were designed for the upstream common kinase region (C4) (-sense primer) and the PKCβI exon (-antisense primer) for simultaneous amplification of both PKCβI and -βII messages by RT-PCR.

Assay [2] relates to rat VSMC. The settings on record: cited from earlier work.
In assay [3] the test system is PKCβ(I+II) mRNA. The assay is described as follows: In vitro RNA stability assay with post-nuclear extracts of A10 cells. The arrangement: species or system rat. The settings on record: 50 mM EDTA added to the reaction mix.
Description: RNA stability assay. To prepare post-nuclear extracts (see, for example, Wager, R. E. and R. K. Assoian. 1990. A phorbol ester-regulated ribonuclease system controlling transforming growth factor BI gene expression in hematopoietic cells. Mol. Cell. Biol. 10:5983-5990), synchronized A1O cells, re-initiated to proliferate with DMEM+10% FBS were treated with either 5.5 mM or 25 mM glucose for 2 h to 24 h, then washed and collected in ice-cold 1× DPBS. The cellular pellet was re-suspended in extract buffer containing 0.01M Tris-HCl, 0.15M NaCl, 0.5% Nonidet P-40, leupeptin (10 μg/ml) and aprotonin (10 μg/ml) incubated on ice for 10 minutes and carefully layered over extract buffer containing 24% sucrose. Samples were centrifuged over a sucrose gradient at 1 0,000xg for 20 minutes at 4° C. Post-nuclear extract was separated, stored on ice and aliquots taken for protein concentration using Bradford protein assay (see Bradford, M. M. 1976. A rapid and sensitive method for the quantitation of microgram quantities of protein utilizing the principle of protein-dye bindingno title. Anal. Biochem. 72:248-254). Total RNA (10 μg) from A10 cells, was incubated with 2.7% (vol/vol) of the post-nuclear extracts for 30 minutes at 4° C. in 50 μl (final volume) of extract buffer. When specifically noted, 50 mM EDTA was added to the reactions as a control to inhibit nuclease activity. […]
Assay [4] relates to PKCβI mRNA. The assay can be described thus: RT-PCR of PKCβI mRNA in synchronized A10 cells. Format: cell-based, rat. Particulars: 4 hours. As for the experimental part:
as §1
Thus, the PKCβII transcript contains the PKCβI exon with the poly A tail and a common 3′ untranslated region (FIG. 25). Inclusion of the alternatively spliced exon encodes a stop codon such that the PKCβI exon facilitates poly-adenylation but the exon is not translated, thereby generating PKCβII protein. […] Although, this assay is semi-quantitative, the ration of PKCβII to PKCβI mRNA was about 2 to 1.

Assay [5] deals with PP2A. Particulars: cited from earlier work.
In assay [6] the test system is IL-3 3′-UTR ARE transcript. The settings on record: cited from earlier work.
The target in assay [7] is PP2B. The settings on record: cited from earlier work.
Assay [8] has as its target PP1. The settings on record: cited from earlier work.
Assay [9] deals with PKCβ promoter. The assay can be described thus: PKCβ promoter-CAT deletion constructs transiently transfected into A10 cells. Format: cell-based, rat. The settings on record: 100 nM TPA. Here is the method:
Calcium-phosphate transfections. For promoter studies, A10 cells were grown and synchronized in 6-well plates. Three hours prior to transfections, fresh medium (DMEM containing 10% fetal bovine serum) was substituted on A10 cells. pβG or pβG-PKCβII expression vectors were transfected with the calcium-phosphate-DNA precipitate. Following overnight incubation, calcium phosphate-DNA precipitate was washed off with 1× Dulbecco's phosphate buffered saline (DPBS) and replaced with fresh medium. For stably-transfected cell selection, 0.7 mg/ml G-418 was added to the media. It was changed every 4 days and 10-14 days later, the colonies were pooled and maintained in DMEM (10% FBS) with 0.2 mg/ml G-418.
Since PKCβ is a low copy gene, nuclear run-on assays were not a practical approach to examine transcriptional regulation. […] PKCβ promoter constructs with successive deletions of the 5′ region cloned in front of a promoterless chloramphenicol acetyltransferase (CAT) as the reporter gene were transiently transfected into A10 cells (FIG. 19). pSV-β-Galactosidase was co-transfected with the CAT constructs to normalize the efficiency of transfection. Simultaneous positive and negative controls were carried out as described previously.
Transcriptional repression of PKCβ promoter by transcription factors in response to high glucose was anticipated. […]

Assay [10] relates to glucose-sensing element. The assay is described as follows: Specificity of the glucose-sensing element for hexoses.
The subject of assay [11] is PKCβ(I+II) mRNA. The assay can be described thus: Northern blot of steady state PKCβ(I+II) mRNA in synchronized A10 cells. Format: cell-based, rat. Particulars: 25 mM mannitol osmotic control, 15-18 hours. As for the experimental part: Cell culture. […] Cells were grown to >90% confluency and media was changed every 4 days. Cell synchronization was achieved by serum deprivation (0.5% FBS) for 48 hours (see, for example, Ross, R., C. Nist, B. Kariya, M. J. Rivest, E. Raines, and J. Callis. 1978. Physiological quiescence in plasma-derived serum: Influence of platelet derived growth factor on cell growth in culture. J. Cell. Physiol. 97:497-508).
Isolation of RNA and Northern Blot Analysis. Total cellular RNA was isolated from 100-mm plates using Tri-Reagent (Molecular Research Center, Inc.). […] Ethidium bromide was added in the loading buffer for visualization and quantitation of 18S and 28S RNA. After fractionation, the integrity and loading of RNA was assessed under UV light (23,24). […] Membranes were washed with high stringency conditions (1×SSC, 0.1% SDS for 15 minutes at 42° C. followed by 0.11× SSC, 0.1% SDS for 15 minutes at 42° C.), and quantitated using Molecular Dynamics Phosphoimaging System. In experiments, where mentioned, membranes were exposed to X-ray film and the autoradiograms were quantitated densitometrically.
Cells incubated with 25 mM mannitol were used as osmotic controls. Total RNA was extracted and the mRNA transcript levels were detected using a full length PKCβ cDNA probe which would cross-hybridize with both PKCβI and PKCβII mRNAs. […]

Assay [12] deals with PKCβI mRNA. The assay is described as follows: RT-PCR of PKCβI mRNA in primary human aortic smooth muscle cells (AoSMC). Format: cell-based. Particulars: 100 nM insulin, 4 hours. Here is the method: (§2) Cells were grown to >90% confluency and medium was changed every 5 days.
as §1

Assay [13] deals with PKCβII mRNA. The assay is described as follows: RT-PCR of PKCβII mRNA in primary human aortic smooth muscle cells (AoSMC). Format: cell-based. The settings on record: 4 hours; for effect on PKCβII mRNA: 100 nM insulin. As for the experimental part: as §2, §1

On to `O=CC[C@@H](O)[C@H](O)[C@H](O)CO` [2-DOG, 2-deoxyglucose], for which, in [1] (4 hours), the “effect of glucose analogs on PKCβII mRNA” value is given as “destabilized”. The same measure, in the same setting: for `CO[C@@H]([C@H](O)[C@H](O)CO)[C@@H](O)C=O` [3-O-Methylglucose, 3-O-methylglucose] the value was “destabilized”.

Turning to `N#C/C(=C/c1ccc(O)c(O)c1)C(=O)NCc1ccccc1` [AG-490], the “PERCENT OF PKCβII mRNA POST-GLUCOSE TREATMENT” value in [1] amounted to 5%.

Turning to `CO[C@@H]1[C@H](N(C)C(=O)c2ccccc2)C[C@H]2O[C@]1(C)n1c3ccccc3c3c4c(c5c6ccccc6n2c5c31)C(=O)NC4` [CG 41251], the “PERCENT OF PKCβII mRNA POST-GLUCOSE TREATMENT” value in assay [1] is 100%. On to `O=C1NC(=O)c2cc(Nc3ccc(F)cc3)c(Nc3ccc(F)cc3)cc21` [CGP53353], for which the “glucose-stimulated rat VSMC proliferation” value in [2] was “inhibits”. Take `C[C@@H]1C[C@@H]([C@H](O)CC2CC(=O)NC(=O)C2)C(=O)[C@@H](C)C1` [Cycloheximide]: in [1], the “effect of inhibitor on glucose-induced destabilization of PKCβII mRNA” value (“effect of inhibitor” below) is listed as “did not block” and the “PERCENT OF PKCβII mRNA POST-GLUCOSE TREATMENT” value was 10%.

On to `O=C(O)CN(CCN(CC(=O)O)CC(=O)O)CC(=O)O` [EDTA], for which the “degradation of RNA by post-nuclear extract” value in assay [3] was “No degradation”.

In the case of `N[C@H]1C(O)O[C@H](CO)[C@@H](O)[C@@H]1O` (stereo partly shown) [Glucosamine], the “effect on PKCβII mRNA” value in assay [1] (10 mM glucosamine in the presence of 5.5 mM glucose, 4 hours) was “did not destabilize; also recorded: did not affect”. The “effect on PKCβI mRNA” value in [4] (10 mM glucosamine in the presence of 5.5 mM glucose) is “did not destabilize; also recorded: did not affect”. Take `CO[C@H]1[C@@H](OC)C[C@H](C)[C@@H](OC)C2=CC(=O)C=C(NC(=O)/C(C)=C/C=C\[C@H](OC)[C@@H](OC(N)=O)/C(C)=C/[C@@H]1C)C2=O` [Herbimycin A]: in [1], the “effect of inhibitor” value was “prevented” and the “PERCENT OF PKCβII mRNA POST-GLUCOSE TREATMENT” value turned out to be 90%. As for `O=c1cc(N2CCOCC2)oc2c(-c3ccccc3)cccc12` [LY 294002], the “PERCENT OF PKCβII mRNA POST-GLUCOSE TREATMENT” value in assay [1] amounted to 90%.

As to `C=C1[C@@H](O)[C@@H]2O[C@]3(CC[C@H](/C=C/[C@@H](C)[C@@H]4CC(C)=C[C@@]5(O[C@H](C[C@@](C)(O)C(=O)O)CC[C@H]5O)O4)O3)CC[C@H]2O[C@@H]1[C@@H](O)C[C@H](C)[C@H]1O[C@@]2(CCCCO2)CC[C@H]1C` [Okadaic acid], the Ki in assay [5] is 0.2 nM; in assay [7], “less potent inhibitor”; in [8], 20 nM. Moreover, the “effect on mRNA stability in GFP reporter system” value in assay [6] is listed as “mRNA stabilizing compound”. In assay [1], the “effect of inhibitor” value is listed as “interfered; also recorded: inhibited the destabilization”. For `COc1cccc(-c2cc(=O)c3ccccc3o2)c1N` [PD 98059], the “PERCENT OF PKCβII mRNA POST-GLUCOSE TREATMENT” value in [1] is recorded as 5%. The same measure, in the same setting: for `CO[C@H]1C[C@@H]2CC[C@@H](C)[C@@](O)(O2)C(=O)C(=O)N2CCCC[C@H]2C(=O)O[C@H]([C@H](C)C[C@@H]2CC[C@@H](O)[C@H](OC)C2)CC(=O)[C@H](C)/C=C(\C)[C@@H](O)[C@@H](OC)C(=O)[C@H](C)C[C@H](C)/C=C/C=C/C=C/1C` [Rapamycin] the value was 5%. `CCCCCCCCCCCCCC(=O)O[C@@H]1[C@@H](C)[C@@]2(O)[C@@H](C=C(CO)C[C@]3(O)C(=O)C(C)=C[C@@H]23)[C@@H]2C(C)(C)[C@]12OC(C)=O` [TPA, 12-O-tetradecanoylphorbol-13-acetate]: the “increase of promoter activity in all constructs” value in assay [9] is listed as “ten-fold”.

For `O=C(CO)[C@@H](O)[C@H](O)[C@H](O)CO` [fructose], the “destabilization of the glucose-sensing element” value in assay [10] is on record as “do not destabilize”.

For `OC[C@@H](O)[C@@H](O)[C@H](O)[C@H](O)CO` [mannitol], the “PKCβ(I+II) mRNA levels” value in assay [11] is on record as “remained unchanged”. The “destabilization of the glucose-sensing element” value in assay [10] is on record as “do not destabilize”. Moreover, the “levels of PKCβII mRNA” value in assay [1] (5.5 mM glucose+19.5 mM mannitol (osmotic control), 4 hours) is given as “did not; also recorded: remained unchanged”. Besides, the “levels of PKCβI mRNA” value in assay [4] (5.5 mM glucose+19.5 mM mannitol (osmotic control)) is recorded as “remained unchanged”. “insulin: hormone that promotes glucose uptake”: the “effect on PKCβI mRNA” value in assay [12] is reported as “did not significantly affect”; in assay [12] (listed as Insulin), “did not destabilize”. Moreover, the “effect on PKCβII mRNA” value is on record as “did not significantly affect” in [13] and “did not destabilize” in [13] (listed as Insulin). Moreover, the “PKCβII mRNA diminished” value in [13] (25 mM glucose+100 nM insulin) stood at 60%.
